# “Also recorded” adds a separate entry of the source.
# What was measured:
# Assay type in all cases: cell-based, human
# [1] = test system: T47D cells; assay: 7-AAD assay in T47D cells; conditions: 48 h after transfection, EGFP positive cells only
# Protocol: (§1) Transfected T47D, MCF-7, MDA-MB-231, HeLa and H1373 cells were pelleted and resuspended in 500 μL PBS (Invitrogen) containing 1 μM 7-aminoactinomycin D (7-AAD) (Invitrogen) for 30 min prior to analysis following the recommended protocol from the manufacturer. The assay was performed 48 h after transfection for T47D, MCF-7 and H1373 and 24 h after transfection for MDA-MB-231 and HeLa. Only EGFP positive cells were analyzed by using the FACS Canto-II (BD-BioSciences) with FACS Diva software. EGFP and 7-AAD were excited with the 488 nm laser, and were detected at 507 nm and 660 nm, respectively. Independent transfections of each construct were tested three times (n=3).
# (§2) Transfected T47D, H1373, SKOV-3 and HeLa cells were pelleted and re-suspended in 500 μL PBS (Invitrogen) containing 1 μM 7-aminoactinomycin D (7-AAD) (Invitrogen) for 30 min prior to analysis. T47D and H1373 cells were analyzed 48 h after transfection, while SKOV-3 and HeLa cells were analyzed 24 h after transfection (time points optimized empirically). Only EGFP positive cells were assayed using the FACS Canto-II (BD-BioSciences) with FACS Diva software as previously. EGFP and 7-AAD were excited at 488 nm, and detected at 507 nm and 660 nm, respectively. Independent transfections of each construct were assayed three times (n=3). The highest value (EGFP positive cells stained with 7-AAD) was set at 100%, and the lowest at 0% (relative 7-AAD) as previously.
# [2] = test system: T47D cells; assay: Caspase-9 assay (SR FLICA) in T47D cells; conditions: 48 h after transfection
# Protocol: T47D cells were probed 48 h after transfection using SR FLICA Caspase-9 Assay Kit (Immunochemistry Technologies, Bloomington, Minn.). Cells were incubated with SR FLICA Caspase-9 reagent for 60 min per manufacturer's recommendations, pelleted and resuspended in 300 μL 1× wash buffer (Immunochemistry Technologies). Only EGFP positive cells were analyzed by using the FACS Canto-II (BD-BioSciences) with FACS Diva software. EGFP and FLICA were excited with the 488 nm (emission filter 530/35) and the 561 laser (emission filter 585/15), respectively. Independent transfections of each construct were tested three times (n=3).
# As previously described, 48 h after transfection, T47D cells were tested with SR FLICA Caspase-9 Assay Kit (Immunochemistry Technologies, Bloomington, Minn.). Cells were incubated with SR FLICA Caspase-9 reagent for 60 min, pelleted and re-suspended in 300 μL, 1× wash buffer (Immunochemistry Technologies). The FACS Canto-II with FACS Diva software was used to analyzed only EGFP positive cells stained with caspase-9, both were excited with the 488 nm (emission filter 530/35) and the 561 nm laser (emission filter 585/15), respectively. Independent transfections of each construct were assayed three times (n=3). The highest value (EGFP positive cells stained with caspase-9) was set as 100% and the lowest as 0% (relative caspase-9).
# [3] = test system: SKOV-3 cells; assay: 7-AAD assay in SKOV-3 cells; conditions: SKOV-3 (p53 null), 24 h after transfection
# Protocol: as §2
# [4] = test system: H1373 cells; assay: 7-AAD assay in H1373 cells; conditions: H1373 (p53 null), 48 h after transfection
# Protocol: as §1, §2
# [5] = test system: p53-Luc Cis-Reporter; assay: p53 reporter gene (dual luciferase) assay in T47D cells; conditions: 24 h post transfection
# Protocol: Luminescence was detected 24 h post transfection using PlateLumino (Stratec Biomedical Systems, Birkenfeld, Germany). Independent transfections of each constructs were assayed three times (n=3). The highest value was set at 100% and lowest value (untreated cells) was set as 0% (relative luminescence).
# [6] = test system: HeLa cells; assay: 7-AAD assay in HeLa cells; conditions: 24 h after transfection
# Protocol: as §1, §2
# [7] = test system: T47D cells; assay: TMRE assay (MOMP) in T47D cells; conditions: 36 h after transfection
# Protocol: 36 h after transfection T47D cells were incubated with 100 nM tetramethylrhodamineethylester (TMRE) (Invitrogen) for 30 min at 37° C. T47D cells were pelleted and resuspended in 300 μL annexin-V binding buffer (1×) (Invitrogen). Only EGFP positive cells were analyzed by using the FACS Canto-II (BD-BioSciences) with FACS Diva software. EGFP was excited with the 488 nm laser with emission filter 530/35 and TMRE was excited with the 561 nm laser with the emission filter 585/15. Mitochondrial depolarization (loss in TMRE intensity) correlates with an increase in MOMP. Independent transfections of each construct were tested three times (n=3).
# 36 h after transfection T47D cells were incubated with 100 nM tetramethylrhodamine, ethylester (TMRE) (Invitrogen) for 30 min at 37° C., pelleted and resuspended in 300 μL annexin-V binding buffer (1×) (Invitrogen). The FACS Canto-II with FACS Diva software was used to analyze only EGFP positive cells (excited at 488 nm with emission 530/35) stained with TMRE (excited at 561 nm laser with the emission 585/15). Loss in TMRE intensity represents mitochondrial depolarization, which correlates with an increase in mitochondrial outer membrane permeabilization (MOMP). Independent transfections of each construct were assayed three times (n=3). The highest MOMP value was set as 100% and the lowest as 0% (relative MOMP) as before.
substance,measurement,setting,value
p53-BakMTS: MTS from Bak fused to the C-terminus of EGFP-p53,7-AAD positive cells (late apoptosis),[1],significant apoptotic effect compared to their corresponding negative controls; also recorded: significantly higher apoptosis compared to cells transfected with MTS negative controls; also recorded: induce apoptosis similarly to wt p53
same,caspase-9 activation,[2],significant effect; also recorded: not significantly higher from wt p53
same,7-AAD positive cells (late apoptosis),[3],significantly higher than their negative control E-BakMTS
same,7-AAD positive cells (late apoptosis),[4],statistically higher from their negative control E-BakMTS
same,nuclear transcriptional activity (relative luminescence),[5],no nuclear activity
same,7-AAD positive cells (late apoptosis),[6],significant from their corresponding negative controls
same,% MOMP induction (loss of TMRE fluorescence),[7],not significantly higher from wt p53
